Earlier results in publication PMC3131558, “Plitidepsin Has a Safe Cardiac Profile: A Comprehensive Analysis” (Marine Drugs, 2011).

Conditions: possible class effect of HDACI inhibitors; cited from earlier work
Source text: Plitidepsin has neither shown cardiac toxicity during preclinical/toxicology studies nor has been reported in early phase I clinical trials.

Compound	Electrocardiogram (ECG) abnormalities
O=C(/C=C/c1ccc(CN(CCO)CCc2c[nH]c3ccccc23)cc1)NO [LAQ824]	reported
Cc1[nH]c2ccccc2c1CCNCc1ccc(/C=C/C(=O)NO)cc1 [LBH589]	reported
